Holding throughout (type): cell-based
Assay [1] has as its system Aβtotal. As to the kind of experiment: Screening for γ-secretase-modulating activity, Method 2: Aβtotal Alphalisa in supernatant of SKNBE2 cells carrying APP 695 wild type (Table 12c). To be noted: Method 2, Table 12c, incubated overnight. As to the method: (§1) Screening was carried out using SKNBE2 cells carrying the APP 695—wild type, grown in Dulbecco's Modified Eagle's Medium/Nutrient mixture F-12 (DMEM/NUT-mix F-12) (HAM) provided by Invitrogen (cat no. 10371-029) containing 5% Serum/Fe supplemented with 1% non-essential amino acids, 1-glutamine 2 mM, Hepes 15 mM, penicillin 50 U/ml (units/ml) en streptomycin 50 μg/ml. Cells were grown to near confluency.
(§2) The screening was performed using a modification of the assay as described in Citron et al (1997) Nature Medicine 3: 67. Briefly, cells were plated in a 384-well plate at 10^4 cells/well in Ultraculture (Lonza, BE12-725F) supplemented with 1% glutamine (Invitrogen, 25030-024), 1% non-essential amino acid (NEAA), penicillin 50 U/ml en streptomycin 50 μg/ml in the presence of test compound at different test concentrations. The cell/compound mixture was incubated overnight at 37° C., 5% CO2, The next day the media were assayed by two sandwich immuno-assays, for Aβ42 and Aβtotal.
(§3) Aβtotal and Aβ42 concentrations were quantified in the cell supernatant using the Aphalisa technology (Perkin Elmer). Alphalisa is a sandwich assay using biotinylated antibody attached to streptavidin coated donorbeads and antibody conjugated to acceptor beads. In the presence of antigen, the beads come into close proximity. The excitation of the donor beads provokes the release of singlet oxygen molecules that trigger a cascade of energy transfer in the acceptor beads, resulting in light emission. To quantify the amount of Aβ42 in the cell supernatant, monoclonal antibody specific to the C-terminus of Aβ42 (JRF/cAβ42/26) was coupled to the receptor beads and biotinylated antibody specific to the N-terminus of Aβ (JRF/AβN/25) was used to react with the donor beads. To quantify the amount of Aβtotal in the cell supernatant, monoclonal antibody specific to the N-terminus of Aβ (JRF/AβN/25) was coupled to the receptor beads and biotinylated antibody specific to the mid region of Aβ (biotinylated 4G8) was used to react with the donor beads.
(§4) To obtain the values reported in Table 12c, the data are calculated as percentage of the maximum amount of amyloid Beta 42 measured in the absence of the test compound. The sigmoidal dose response curves were analyzed using non-linear regression analysis with percentage of the control plotted against the log concentration of the compound. A 4-parameter equation was used to determine the IC50.
For orientation: In Alpha technology, singlet oxygen from a donor bead excites a nearby acceptor bead.

In assay [2] the test system is Aβ42. As to the kind of experiment: Screening for γ-secretase-modulating activity, Method 2: Aβ42 Alphalisa in supernatant of SKNBE2 cells carrying APP 695 wild type (Table 12c). The following applies: Method 2, Table 12c, incubated overnight. As for the experimental part: as §1, §2, §3, §4
Assay [3] relates to Aβtotal. As to the kind of experiment: Screening for γ-secretase-modulating activity, Method 1: Aβtotal sandwich ELISA in supernatant of SKNBE2 cells carrying APP 695 wild type (Tables 12a, 12b). The following applies: Homo sapiens. As for the experimental part:
(§5) Screening was carried out using SKNBE2 cells carrying the APP 695—wild type, grown in Dulbecco's Modified Eagle's Medium/Nutrient mixture F-12 (DMEM/NUT-mix F-12) (HAM) provided by Gibco (cat no. 31330-38) containing 5% Serum/Fe supplemented with 1% non-essential amino acids. Cells were grown to near confluency.
(§6) The screening was performed using the assay as described in Citron et al (1997) Nature Medicine 3: 67. Briefly, cells were plated in a 96-well plate at about 10^5 cells/ml one day prior to addition of compounds. Compounds were added to the cells in Ultraculture (Lonza, BE12-725F) supplemented with 1% glutamine (Invitrogen, 25030-024) for 18 hours. The media were assayed by two sandwich ELISAs, for Aβ42 and Aβtotal. Toxicity of the compounds was assayed by WST-1 cell proliferation reagent (Roche, 1 644 807) according to the manufacturer's protocol.
To quantify the amount of Aβtotal in the cell supernatant, samples and standards were added to a 6E10-coated plate. The plate was allowed to incubate overnight at 4° C. in order to allow formation of the antibody-amyloid complex. Following this incubation and subsequent wash steps a selective anti-Aβ-antibody conjugate (biotinylated 4G8) was added and incubated for a minimum of 1 hour in order to allow formation of the antibody-Amyloid-antibody-complex. After incubation and appropriate wash steps, a Streptavidine-Peroxidase-Conjugate was added, followed 30 minutes later by an addition of Quanta Blu fluorogenic peroxidase substrate according to the manufacturer's instructions (Pierce Corp., Rockford, Ill.).
(§7) To obtain the values reported in Table 12a, the sigmoidal dose response curves were analysed by computerised curve-fitting, with percent of inhibition plotted against compound concentration. A 4-parameter equation (model 205) in XLfit was used to determine the IC50. The top and the bottom of the curve were fixed to 100 and 0, respectively, and the hill slope was fixed to 1. The IC50 represents the concentration of a compound that is required for inhibiting a biological effect by 50% (Here, it is the concentration where Aβ peptide level is reduced by 50%).
(§8) To obtain the values reported in Table 12b, the data are calculated as percentage of the maximum amount of amyloid Beta 42 measured in the absence of the test compound. The sigmoidal dose response curves were analyzed using non-linear regression analysis with percentage of the control plotted against the log concentration of the compound. A 4-parameter equation was used to determine the IC50. The values reported in Table 12b are averaged IC50 values.
On the technique in general: ELISA stands for enzyme-linked immunosorbent assay.

For assay [4], the system named is Aβ42. As to the kind of experiment: Screening for γ-secretase-modulating activity, Method 1: Aβ42 sandwich ELISA in supernatant of SKNBE2 cells carrying APP 695 wild type (Tables 12a, 12b). The following applies: Homo sapiens. As to the method: as §5, §6
To quantify the amount of Aβ42 in the cell supernatant, commercially available Enzyme-Linked-Immunosorbent-Assay (ELISA) kits were used (Innotest® β-Amyloid(1-42), Innogenetics N.V., Ghent, Belgium). The Aβ42 ELISA was performed essentially according to the manufacturer's protocol. Briefly, the standards (dilutions of synthetic Aβ1-42) were prepared in polypropylene Eppendorf with final concentrations of 8000 down to 3.9 pg/ml (1/2 dilution step). Samples, standards and blanks (100 μl) were added to the anti-Aβ42-coated plate supplied with the kit (the capture antibody selectively recognizes the C-terminal end of the antigen). The plate was allowed to incubate 3 h at 25° C. in order to allow formation of the antibody-amyloid complex. Following this incubation and subsequent wash steps a selective anti-Aβ-antibody conjugate (biotinylated 3D6) was added and incubated for a minimum of 1 hour in order to allow formation of the antibody-Amyloid-antibody-complex. After incubation and appropriate wash steps, a Streptavidine-Peroxidase-Conjugate was added, followed 30 minutes later by an addition of 3,3′,5,5′-tetramethylbenzidine (TMB)/peroxide mixture, resulting in the conversion of the substrate into a coloured product. This reaction was stopped by the addition of sulfuric acid (0.9 N) and the colour intensity was measured by means of photometry with an ELISA-reader with a 450 nm filter.
as §7, §8

[5] abbreviates: Table 12b, Method 1, SKNBE2 cells carrying APP 695 wild type, cell supernatant ELISA, averaged IC50 values.
Setting [6] is: Table 12b, Method 1, SKNBE2 cells carrying APP 695 wild type, cell supernatant ELISA, averaged IC50 values, percentage of control vs log concentration.
[7] abbreviates: Method 1, Table 12a, SKNBE2 cells carrying APP 695 wild type, compounds 18 hours, ELISA, curve top and bottom fixed to 100 and 0, hill slope 1.

pIC50: −log10 of the molar value. Some results are limits rather than exact numbers.

Broadly, the pIC50 is −log10 of the IC50, conventionally taken in molar units. For the compound `COc1cc(Nc2cccn3cc(C(C)(C)O)nc23)ccc1-n1cnc(C)c1` [Compound 121], the pIC50 in the assay with Aβtotal [1] was < 5.00; with Aβ42 [2], 5.88.
With `Cc1cn(-c2ccc(Nc3cc(Cl)cn4cc(C5CCOCC5)nc34)cc2F)cn1` [Compound 150], the pIC50 was < 5.00 in the assay with Aβtotal [1] and 6.70 with Aβ42 [2].
With `COc1nc(Nc2cccn3cc(C4CCOCC4)nc23)ccc1-n1cnc(C)c1` [Compound 143], the negative logarithm of the IC50 (pIC50) in the assay with Aβtotal [1] was 5.47; in the assay with Aβ42 [2] it was 7.22.
The corresponding values for `Cc1cn(-c2ccc(Nc3cc(Cl)nn4cc(-c5cc(F)ccc5C)nc34)cc2F)cn1` [Compound 169] are 5.10 and 6.38.
The like results for `COc1cc(Nc2cccn3cc(C(O)C(F)(F)F)nc23)ccc1-n1cnc(C)c1` (stereo not drawn) [Compound 110] were, in that order, < 5.00 and 6.89.
The corresponding values for `COc1cc(Nc2cccn3cc(C(=O)OC(C)(C)C)nc23)ccc1-n1cnc(C)c1` [Compound 106] are 5.34 and 7.47.
Consider `COc1cc(Nc2cccn3c(CN(C)C)c(-c4ccccc4Cl)nc23)ccc1-n1cnc(C)n1` [Compound 126], for which the negative logarithm of the IC50 (pIC50) is < 5.00 in the assay on Aβtotal [1] and 7.28 with Aβ42 [2].
On to `COc1cc(Nc2cccn3cc(-c4cc(CN)ccc4C)nc23)ccc1-n1cnc(C)c1` [Compound 107], for which the results for the negative-log IC50 (pIC50) in the assay with Aβtotal [1] (Homo sapiens) and in the assay with Aβ42 [2] (Homo sapiens) were 5.69 and 7.32, respectively.
The like results for `Cc1cn(-c2ccc(Nc3cccn4cc(CC5CCOCC5)nc34)cc2F)cn1` [Compound 115] were, in that order, 5.08 and 6.59.
Take `COc1nc(Nc2cc(F)cn3cc(CC(C)C)nc23)ccc1-n1cnc(C)c1` [Compound 142]: the negative logarithm of the IC50 (pIC50) in the assay on Aβtotal [1] was 5.18; in the assay with Aβ42 [2] it was 7.51.
Regarding `CCC(=O)NCc1ccc(C)c(-c2cn3cccc(Nc4ccc(-n5cnc(C)c5)c(OC)c4)c3n2)c1` [Compound 111], the negative logarithm of the IC50 (pIC50) is 5.26 in the assay on Aβtotal [1] (Homo sapiens) and 7.19 in the assay on Aβ42 [2] (Homo sapiens).
Consider `COc1cc(Nc2cc(Cl)nn3cc(C)nc23)ccc1-n1cnc(C)c1` [Compound 165], for which the negative-log IC50 (pIC50) is < 5.00 in the assay on Aβtotal [1] and 6.75 with Aβ42 [2].
On to `COc1nc(Nc2cccn3c(C)c(-c4ccccc4Cl)nc23)ccc1-n1cnc(C)c1` [Compound 139], for which the pIC50 with Aβtotal [1] is 5.37; with Aβ42 [2], 8.30.
The corresponding values for `COc1cc(Nc2cc(C(F)(F)F)nn3cc(C4CCOCC4)nc23)ccc1-n1cnc(C)c1` [Compound 158] are 5.05 and 7.15.
`COc1cc(Nc2nccn3cc(-c4ccc(F)cc4)nc23)ccc1-n1cnc(C)n1` [Compound 178]: the figures for the pIC50 in the assay on Aβtotal [1] and in the assay with Aβ42 [2] were < 5.00 and 6.42, respectively.
The corresponding values for `COc1cc(Nc2cccn3cc(C(=O)N(C)C)nc23)ccc1-n1cnc(C)c1` [Compound 123] are < 5.00 and 5.27.
With `CCC(=O)c1cn2cccc(Nc3ccc(-n4cnc(C)c4)c(OC)c3)c2n1` [Compound 117], the pIC50 with Aβtotal [1] (Homo sapiens) is < 5.00; in the assay with Aβ42 [2] (Homo sapiens), 6.48.
`COCc1c(-c2ccccc2Cl)nc2c(Nc3ccc(-n4cnc(C)c4)c(OC)n3)cccn12` [Compound 140]: the pIC50 with Aβtotal [1] is 5.39; in the assay on Aβ42 [2], 8.22.
The like results for `CCCCc1cn2cccc(Nc3ccc(-n4cnc(C)c4)c(OC)c3)c2n1` [Compound 69] were, in that order, < 5.00 and 7.34.
The like results for `Cc1cn(-c2ccc(Nc3ccnn4cc(-c5cc(F)ccc5C)nc34)cc2F)cn1` [Compound 166] were, in that order, < 5.00 and 6.60.
As for `COc1cc(Nc2cc(Cl)nn3cc(-c4cc(F)ccc4C)nc23)ccc1-n1cnc(C)n1` [Compound 162], the pIC50 was < 5.00 with Aβtotal [1] and 6.86 in the assay with Aβ42 [2].
The corresponding values for `COc1cc(Nc2cc(C3CCOCC3)nn3cc(C)nc23)ccc1-n1cnc(C)c1` [Compound 170] are < 5.00 and 6.35.
The corresponding values for `COc1cc(Nc2cc(C(C)C)nn3cc(C)nc23)ccc1-n1cnc(C)c1` [Compound 160] are < 5.00 and 7.06.
As to `Cc1cn(-c2ccc(Nc3cc(F)cn4cc(-c5ccc(F)cc5C)nc34)cc2F)cn1` [Compound 148], the pIC50 in the assay on Aβtotal [1] was < 5.00; in the assay on Aβ42 [2] it was 7.37.
As for `COc1nc(Nc2cccn3cc(CC(F)(F)F)nc23)ccc1-n1cnc(C)n1` [Compound 180], the values for the pIC50 in the assay on Aβtotal [1] and in the assay on Aβ42 [2] were 5.20 and 6.25, respectively.
With `COc1c(-c2ccc(F)cc2)nc2c(Nc3ccc(-n4cnc(C)c4)c(F)c3)cccn12` [Compound 112], the values for the pIC50 in the assay with Aβtotal [1] and in the assay with Aβ42 [2] were < 5.00 and 6.97, respectively.
The like results for `COc1nc(Nc2cccn3c(OC)c(-c4ccc(F)cc4)nc23)ccc1-n1cnc(C)c1` [Compound 141] were, in that order, < 5.00 and 7.89.
In the case of `COc1cc(Nc2ccnn3cc(-c4cc(F)ccc4C)nc23)ccc1-n1cnc(C)c1` [Compound 159], the negative logarithm of the IC50 (pIC50) was 5.32 in the assay on Aβtotal [1] (Homo sapiens) and 7.26 in the assay with Aβ42 [2] (Homo sapiens).
The corresponding values for `COCCOCCOCC(=O)NCc1ccc(C)c(-c2cn3cccc(Nc4ccc(-n5cnc(C)c5)c(OC)c4)c3n2)c1` [Compound 114] are 5.44 and 6.82.
With `C=C(C)c1cc(Nc2ccc(-n3cnc(C)c3)c(OC)n2)c2nc(-c3ccccc3Cl)cn2n1` [Compound 171], the figures for the pIC50 in the assay with Aβtotal [1] (Homo sapiens) and in the assay on Aβ42 [2] (Homo sapiens) were 5.08 and 6.27, respectively.
As to `COc1cc(Nc2cccn3c(C#N)c(-c4ccc(F)cc4)nc23)ccc1-n1cnc(C)c1` [Compound 58], the negative logarithm of the IC50 (pIC50) in the assay on Aβtotal [3] (setting [5]) is < 5.52; with Aβ42 [4] (setting [6]), > 6.96.
With `COc1cc(Nc2cccn3cc(-c4cccc(F)c4)nc23)ccc1-n1cnc(C)c1` [Compound 19], the pIC50 in the assay with Aβtotal [3] (setting [7]) was < 5.52; with Aβtotal [3] (setting [5]) it was < 5.52; with Aβ42 [4] (setting [7]) it was 7.23; in the assay on Aβ42 [4] (setting [6]), 7.25.

These data come from patent publication US8546440B2, “Substituted bicyclic imidazole derivatives as gamma secretase modulators” (Janssen Pharmaceuticals, Inc., priority 2008, dated 2013).
